Measured values: patent US20260242350A1, “POLYCYCLIC THYROID HORMONE BETA RECEPTOR AGONIST AND USE THEREOF” (CASCADE PHARMACEUTICALS, INC., priority 2023, published 2026)

What was measured:
[1] = target: T1, THRβ LBD (His-GST-dLBT-THRβLBD) (Homo sapiens, UniProt P10828); experiment: THR-FRET (time-resolved fluorescence resonance energy transfer) agonist activity assay, THRβ; type: biochemical; details: for EC50: 24 h at room temperature; for Selectivity (THRα/THRβ): ratio of EC50 THRα/THRβ
T1 construct: made in house; host or cells: E. coli BL21 (DE3)
T1 sequence (P10828 217-461 limits assumed): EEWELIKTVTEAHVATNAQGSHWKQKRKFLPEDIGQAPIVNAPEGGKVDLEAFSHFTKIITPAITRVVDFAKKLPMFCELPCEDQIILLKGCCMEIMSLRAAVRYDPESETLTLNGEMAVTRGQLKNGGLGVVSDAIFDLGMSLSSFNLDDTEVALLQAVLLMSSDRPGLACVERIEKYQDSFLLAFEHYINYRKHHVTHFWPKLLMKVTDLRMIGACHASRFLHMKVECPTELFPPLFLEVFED
Source text: (§1) Experimental Example 1: Detection of Agonist Activities of Compounds Against THRα/β Based on Time-Resolved Fluorescence Resonance Energy Transfer (THR-FRET)
(§2) 1. Construction of THRα/β Overexpression Vectors
(§3) By visiting NCBI, the THRα/β LBD domain sequences were found. The pET21-His-GST-dLBT-THRα LBD and pET21-His-GST-dLBT-THRβLBD overexpression vectors were constructed by the fusion method, and sequenced to confirm the accuracy of the sequences.
(§4) 2. Prokaryotic Expression of Recombinant Proteins in E. coli
(§5) The THRα LBD and THRβLBD overexpression vectors confirmed by sequencing were transfected into E. coli cells BL21 (DE3), and spread on an ampicillin-resistant agar plate. Monoclones were picked out and amplified in an LB medium, and transferred into 1 L LB at a ratio of 1:100 for large-scale culture. When the OD value was at 0.8 to 1.2, 0.5 mM isopropyl-beta-D-thiogalactopyranoside (IPTG) was added, and induced overnight at 18° C. The bacteria were harvested, disrupted, and purified via the GST column and the molecular sieve to obtain two proteins His-GST-dLBT-THRα LBD and His-GST-dLBT-THRβLBD.
(§6) 3. Preparation of Compounds and Formulation of Reaction System
(§7) The proteins were taken out from a refrigerator at −80° C. The protein s with the GST-tagged THRα/p LBD domain and the Eu-labelled GST antibodies were thawed slowly on ice, and an assay buffer containing a final concentration of 5 mM dithiothreitol (DTT) was formulated.
(§8) 3.1 Preparation of Compounds
(§9) The starting concentration of the compound was 10 μM (in DMSO). The compound (100 μM in DMSO) was subjected to 3-fold isogradient dilution with DMSO to obtain a total of 11 isogradient concentrations. Subsequently, the above compounds at the isogradient concentration were further subjected to 50-fold dilution with an assay buffer containing 5 mM DTT.
(§10) 3.2 Formulation of THR-FRET Reaction System
(§11) The final concentrations of all components were calculated based on a system with a final volume of 20 µL per well. To […] of assay buffer containing 5 mM DTT, the GST-tagged THRα/β proteins, the SRC2 ([…]) polypeptide, XL665 (Cisobio, #610SAXLB), and the Eu-labeled GST antibody were added, and the final concentrations were 2 nM, 200 nM, 0.05 nM, and 7.6 nM respectively to formulate 18 μL of reaction mixture of the proteins, polypeptide, and antibody per well.
(§12) 18 μL of reaction mixture and 2 μL of diluted compound were added into an optiplate-384-well plate, and reacted at room temperature for 24 h.
(§13) The plate was read using an MD i3x multi-mode microplate reader with the excitation and emission wavelengths of 340 nm and 665 nm, respectively. The intensity of light at a wavelength of 616 nm generated by europium excited by 340 nm wavelength light from the MD i3x multi-mode microplate reader was used as the background. According to the different activation degrees of different compounds against THRα and THRβ, the intensity of the emission light at a wavelength of 665 nm generated by exciting XL665 with the exciting light at a wavelength of 616 nm was varied. The intensity ratio between these two light wavelengths (665 nm, 616 nm) was used as the activation activity of the compound against THRα or THRβ, and was normalized against the ratio in the vehicle DMSO group. The dose-response curve was fitted with four parameters using the GraphPad Prism 6.0 software, and the EC50 value was calculated.

[2] = target: T2, THRα LBD (His-GST-dLBT-THRα LBD) (Homo sapiens, UniProt P10827); experiment: THR-FRET (time-resolved fluorescence resonance energy transfer) agonist activity assay, THRα; type: biochemical; details: 24 h at room temperature
T2 construct: made in house; host or cells: E. coli BL21 (DE3)
T2 sequence (P10827 163-407 isoform P10827-2): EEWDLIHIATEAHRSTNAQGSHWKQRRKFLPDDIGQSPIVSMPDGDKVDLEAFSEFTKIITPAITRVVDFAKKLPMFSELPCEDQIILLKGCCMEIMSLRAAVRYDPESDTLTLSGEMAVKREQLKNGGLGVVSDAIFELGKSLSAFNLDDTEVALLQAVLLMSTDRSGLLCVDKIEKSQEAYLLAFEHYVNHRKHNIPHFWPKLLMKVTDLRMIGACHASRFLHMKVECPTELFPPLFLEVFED
Source text: as §1, §2, §3, §4, §5, §6, §7, §8, §9, §10, §11, §12, §13

THRβ (pGAL4-THRβ-LBD) = target: T3, THRβ (pGAL4-THRβ-LBD) (Homo sapiens, UniProt P10828); experiment: Reporter gene (Dual-Glo luciferase) agonist activity assay in HEK293T cells, THRβ; type: cell-based; details: ratio of EC50 THRα/THRβ
T3 construct: expressed in transfected cells; host or cells: HEK293T
T3 sequence (P10828 217-461): T1 sequence (P10828 217-461 limits assumed)
Source text: Experimental Example 2: Detection of Agonist Activities of Compounds Against THRα and THRβ Based on Reporter Gene Activity Assay Method
1.1 Construction and Preparation of Plasmids pGAL4-THR-LBD and pG5-Luc
The pGAL4-THRα-LBD and pGAL4-THRβ-LBD plasmids used in the reporter gene assay system were constructed by a conventional molecular cloning method comprising the following main steps: the cDNA sequences of THRα (NM_003250) and THRβ(NM_000461) corresponding to the amino acid sequences of THRα (163-407AA) and THRβ(217-461AA) were inserted into the BamHI and NotI enzyme digestion sites of the pGAL4 vector by the PCR technique respectively to obtain the pGAL4-THRα-LBD and pGAL4-THRβ-LBD plasmids; the pG5-Luc (#E249A) and pRL-TK (#E2241) plasmids were purchased from Promega; the plasmids were transfected into the E. coli DH5a by the CaCl2 method, and after further culture and amplification, the plasmids were purified by Plasmid Extraction Kits (TIANGEN, #D107) to obtain the corresponding plasmid DNAs.
1.2 Co-Transfection of Plasmids into HEK293T Cells and Treatment with Compounds
The HEK293T cells were inoculated into a 96-well plate at a density of 1×10^4/well the day before plasmid transfection. Cell transfection was conducted according to the instructions of the transfection reagent FuGENE® HD (Promega, #E2311). The main steps were as follows: taking one well as an example here, the plasmids pGAL4-THRα-LBD or pGAL4-THRβ-LBD, pG5-Luc, and pRL-TK were added in the proportions of 20 ng, 50 ng, and 5 ng to 10 μL of Opti-MEM™ I medium (Gibco, #11058021) and mixed well; subsequently, 0.25 μL of FuGENE® HD was added, mixed well, and then left at room temperature for 5 min; afterwards, […] was added to the cell wells containing 100 μL of culture medium. After cell co-transfection for 6 h, the compound was diluted in a 3-fold gradient with dimethyl sulfoxide at the highest concentration of 1 μM. The compound was added to the cell culture medium at a total of 10 concentrations for treatment for 24 h. There were a total of two duplicate wells for each concentration. Triiodothyronine (T3) was used as the positive control.
1.3 Dual-Glo Luciferase Assay
After the cells were treated with the compound for 24 h, the cells were assayed according to the instructions of Dual-Glo® Luciferase Assay System (Promega, #E2940). The main steps were as follows: 50 μL of culture medium was aspirated from each well and discarded, and then 50 μL of Dual-Glo® Luciferase reagent was added and oscillated at room temperature for 10 min; 80 μL of lysis reaction solution was measured into a white opaque optiPlate-96-well plate, and the luminescence signal value (Firefly-Luc) of the Firefly luciferase was detected using an MD i3x multi-mode microplate reader; 40 μL of Dual-Glo® Stop & Glo® reagent was then added, and oscillated at room temperature for 10 min; the luminescence signal value (Renilla-Luc) of the Renilla luciferase was then detected using an MD i3x multi-mode microplate reader. The Firefly-Luc/Renilla-Luc ratio was used as the activation activity of the compound against THR, and was normalized against the ratio in the vehicle DMSO group; the dose-response curve was fitted with four parameters using the GraphPad Prism6.0 software, and the EC50 value was calculated.

Row | SMILES | EC50 [1] [nM] | Selectivity (THRα/THRβ) [1] | EC50 [2] [nM] | Selectivity (THRα/THRβ) (THRβ (pGAL4-THRβ-LBD))
1 | Cc1cccc2c1c(=O)ccn2Cc1c(Br)cc(-n2nc(C(F)F)c(=O)[nH]c2=O)cc1Br [Compound 49] | 50 to 100 | †† (10 > THRα/β > 1) | 50 to 100 | † (5 ≥ THRα/β)
2 | [2H]C(F)(F)c1nn(-c2cc(Br)c(Cn3ccc(=O)c4ccccc43)c(Br)c2)c(=O)[nH]c1=O [Compound 71] | < 50 | †† (10 > THRα/β > 1) | 50 to 100 | †††† (THRα/β > 20)
3 | [2H]C(c1c(Br)cc(-n2nc(C(F)F)c(=O)[nH]c2=O)cc1Br)n1ccc(=O)c2ccccc21 (stereo not drawn) [Compound 72] | < 50 | †† (10 > THRα/β > 1) | 50 to 100 | ††† (20 ≥ THRα/β > 10)
